Assay results published in article PMC6877352, “Modifying the Siderophore Triacetylfusarinine C for Molecular Imaging of Fungal Infection” (Molecular imaging and biology, 2019).
“Also recorded” adds a separate entry of the source.

Columns and labels:
[1] = Small animal PET/CT imaging in non-infected Lewis rats; conditions: for excretion in PET/CT images: healthy Lewis rats, 45 min p.i.; for Lung uptake (non-infected): non-infected Lewis rats, r.o. injection ~6 MBq, PET/CT 45 min p.i.
Experimental: (§1) PET and CT images were acquired with an Albira PET/SPECT/CT small animal imaging system (Bruker Biospin Corporation, Woodbridge, CT, USA). A. fumigatus infection in rats was established as described by Petrik, et al.. A group of 3 female Lewis rats (2–3 months old), healthy or lung infected, were injected retro-orbitally (r.o.) with [^68Ga] […] Animals were anesthetized with isoflurane (FORANE, Abbott Laboratories, Abbott Park, IL, USA) (2 % flow rate) and positioned prone head first in the Albira system. PET/CT imaging was started 45 min p.i. with a 10-min PET (FOV 148 mm axial) and a subsequent triple CT scanning (FOV 3 × 65 mm axial, 45 kVp, 400 μA, at 400 projections). For reconstruction, Albira software (Bruker Biosoin Corporation, Woodbridge, CZ, USA) was used involving filtered backprojection and MLEM algorithms. PMOD software (PMOD Technologies Ltd., Zurich, Switzerland) was used to analyze and view the reconstructed images.

[2] = test system: A. fumigatus wildtype (ATCC46645); test: In vitro uptake assay in A. fumigatus; format: cell-based, Aspergillus fumigatus; conditions: iron-starvation condition, 45 min, normalized to [^68Ga]TAFC uptake from the same experiment, n = 3
Experimental: For in vitro uptake studies, A. fumigatus wildtype (ATCC46645) was used. Fungal strain was cultured at 37 °C in Aspergillus minimal medium (AMM) containing 1 % (m/v) glucose as carbon source, 20 mM glutamine as nitrogen source, salts, and trace elements. Iron-sufficient media were prepared by adding FeSO4 to a final concentration of 30 μM. For iron-deficient conditions, supplementation of iron was omitted. Iron starvation was verified by the detection of extracellular siderophore production which is suppressed by iron supplementation.
Uptake assays were performed in either iron-deficient or iron-sufficient A. fumigatus wildtype cultures. In a 96-well MultiScreen Filter Plates HTS (1 μm glass fiber filter, Merck Millipore, Darmstadt, Germany), 180 μl of A. fumigatus suspended in iron-replete or iron-depleted medium was added. [^68Ga]siderophores (approx. 1 × 10^5 cpm, 80 nM) were incubated with either PBS pH 7.4 (total series) or blocking solution (10 μM [Fe]TAFC) (non-specific series) at RT for 45 min in quadriplicates. The incubation was interrupted by suction of the medium and the plate was washed twice with ice-cold TRIS-buffered saline (10 mM, pH 7.3). The filters were isolated and the remaining activities were measured in the gamma counter. The uptake was calculated as % uptake of total activity added; each assay was repeated three times. To normalize uptake variations between different fungal cultures, the uptake of each [^68Ga]siderophore was expressed as the ratio to [^68Ga]TAFC uptake from the same experiment. The mean values of three different assays were used to quantitatively compare the difference in uptake between the compounds.

[3] = test system: A. fumigatus infection; test: Small animal PET/CT imaging in rat IPA model; conditions: IPA Lewis rats (A. fumigatus lung infection), r.o. injection ~6 MBq, PET/CT 45 min p.i.
Experimental: as §1

[4] = Protein binding in human serum (size exclusion spin columns); conditions: 37 °C, n = 3
Experimental: At selected time points, 25 μl of serum aliquots was applied on size exclusion spin columns MicroSpin™ G-50 (GE Healthcare, Vienna, Austria). Columns were centrifuged at 2000 rcf for 2 min to separate protein bound radiotracer (eluate) from non-protein bound radiotracer (column). Protein binding ability was determined by measuring activities of column and eluate in the gamma counter.

[5] = Stability in fresh human serum (RP-HPLC, %RCP); conditions: 37 °C, n = 3
Experimental: (§2) [^68Ga]siderophore (50 μl, 2 nmol) was incubated in 450 μl PBS or human serum at 37 °C. At each time point, aliquot of PBS was injected directly to RP-HPLC whereas serum aliquot was mixed with MeOH, vortexed, and centrifuged at 20,000 rcf for 2 min. Supernatant was diluted with H2O and subsequently analyzed by RP-HPLC. The stability was presented as %RCP of radiotracer (n = 3).

[6] = Biodistribution in healthy BALB/c mice; conditions: 90 min p.i.; for species detected in urine (RP-HPLC urinary metabolic profile): BALB/c mice
Experimental: At 90 min post injetion (p.i.), mice were sacrified by cervical dislocation. Organs and tissues (blood, spleen, pancrease, stomach, intestine, kidneys, liver, heart, lung, muscle, femur) were collected and weighed. Radioactivities accumulated by tissues were measured in the gamma counter. The obtained values were expressed as the percentage of injected dose per gram tissue (%ID/g). Urine sample from each animal was injected to RP-HPLC for analysis of urinary metabolic profile of [^68Ga]siderophore.

[7] = Stability in PBS pH 7.4 (RP-HPLC, %RCP); conditions: PBS pH 7.4, 37 °C, n = 3
Experimental: as §2

[8] = Distribution coefficient (logD), octanol/PBS pH 7.4; format: physicochemical; conditions: [^68Ga]siderophore 4 μM, octanol/PBS pH 7.4, n = 5
Experimental: [^68Ga]siderophore (4 μM) in 500 μl phosphate-buffered saline (PBS), pH 7.4, was added to 500 μl octanol. The mixture was vortexed at 1400 rpm for 15 min and subsequently centrifuged at 2000 rcf for 2 min.

[9] = healthy BALB/c mice, i.v., n = 3

| SMILES | Lung uptake (non-infected) [1] [%ID/g] | uptake ratio to [^68Ga]TAFC [2] | Lung uptake (infected) [3] [%ID/g] | Protein binding (%) ([4]; incubation time 30 min) | Protein binding (%) ([4]; incubation time 60 min) | Protein binding (%) ([4]; incubation time 120 min) | Stability in serum (%) ([5]; 30 min) | Stability in serum (%) ([5]; 60 min) | Stability in serum (%) ([5]; 120 min) | species detected in urine (RP-HPLC urinary metabolic profile) [6] | excretion ([6]; healthy BALB/c mice, i.v.) | blood levels [6, 9] [%ID/g] | Stability in PBS (%) ([7]; 30 min) | Stability in PBS (%) ([7]; 60 min) | Stability in PBS (%) ([7]; 120 min) | further results |
| --- | --- | --- | --- | --- | --- | --- | --- | --- | --- | --- | --- | --- | --- | --- | --- | --- |
| CC(=O)NC1CCCN(O)C(=O)C=C(C)CCOC(=O)C(NC(C)=O)CCCN(O)C(=O)C=C(C)CCOC(=O)C(NC(C)=O)CCCN(O)C(=O)C=C(C)CCOC1=O (stereo not shown) (68Ga complex, metal not drawn) [TAFC, triacetylfusarinine C] | 0.20 ± 0.03 | 1 | 0.69 ± 0.11 | 2.54 ± 1.01 | 3.55 ± 0.68 | 2.96 ± 0.33 | 99.48 ± 0.29 | 99.46 ± 0.09 | 99.41 ± 0.19 | only intact | rapid renal excretion | < 0.1 | 99.89 ± 0.02 | 99.83 ± 0.13 | 99.73 ± 0.03 | excretion in PET/CT images [1]: excreted rapidly via the urinary system |
| CCCC(=O)NC1CCCN(O)C(=O)C=C(C)CCOC(=O)C(NC(=O)CCC)CCCN(O)C(=O)C=C(C)CCOC(=O)C(NC(=O)CCC)CCCN(O)C(=O)C=C(C)CCOC1=O (stereo not shown) (68Ga complex, metal not drawn) [TBuFC, tributanoyl(FSC)] | – | 0.86 | – | – | – | – | – | – | – | – | – | – | – | – | – | logD [8]: 0.34 ± 0.01; uptake ratio to [^68Ga]TAFC ([2]; listed as [^68Ga]TBuFC): around 1 |
| CCC(=O)NC1CCCN(O)C(=O)C=C(C)CCOC(=O)C(NC(=O)CC)CCCN(O)C(=O)C=C(C)CCOC(=O)C(NC(=O)CC)CCCN(O)C(=O)C=C(C)CCOC1=O (stereo not shown) (68Ga complex, metal not drawn) [TPFC, tripropanoyl(FSC)] | 0.20 ± 0.02 | 1.40 | 0.63 ± 0.08 | 2.31 ± 0.57 | 3.39 ± 0.32 | 2.65 ± 0.66 | 99.67 ± 0.19 | 99.56 ± 0.23 | 99.54 ± 0.25 | only intact | rapid renal excretion | < 0.1 | 99.90 ± 0.02 | 99.86 ± 0.04 | 99.79 ± 0.11 | excretion in PET/CT images ([1]; listed as [^68Ga]TPFC): excreted rapidly via the urinary system; also recorded: certain hepatobiliary excretion; uptake ratio to [^68Ga]TAFC ([2]; listed as [^68Ga]TPFC): ~1.4; uptake in intestine [6, 9]: lower than 3 %ID/g |
